Here are results for 14 molecules from patent publication US20060276520A1 (priority 2002, published 2006).

SMILES strings stand for the structures.

This assay deals with MDM2/P53 (Homo sapiens, UniProt Q00987). Briefly: biochemical.
Chain of MDM2/P53 (Q00987 whole entry): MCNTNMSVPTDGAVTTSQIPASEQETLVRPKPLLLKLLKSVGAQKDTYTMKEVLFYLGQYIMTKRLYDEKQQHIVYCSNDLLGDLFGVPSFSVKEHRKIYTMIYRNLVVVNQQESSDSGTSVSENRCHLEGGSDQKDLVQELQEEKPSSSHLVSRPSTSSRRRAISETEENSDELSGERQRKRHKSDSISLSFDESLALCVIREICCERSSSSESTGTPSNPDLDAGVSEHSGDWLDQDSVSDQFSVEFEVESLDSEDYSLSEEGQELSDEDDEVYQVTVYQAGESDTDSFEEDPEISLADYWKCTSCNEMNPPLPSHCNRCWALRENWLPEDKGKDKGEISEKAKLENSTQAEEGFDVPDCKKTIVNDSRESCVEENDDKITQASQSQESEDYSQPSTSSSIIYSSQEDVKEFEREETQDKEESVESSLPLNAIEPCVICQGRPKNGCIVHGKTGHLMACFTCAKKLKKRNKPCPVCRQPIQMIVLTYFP
In the case of `O=C1/C(=C/c2ccc(-c3ccc(Br)cc3)o2)SC(=S)N1c1ccccc1` [Compound 27, (5Z)-5-{[5-(4-bromophenyl)-2-furyl]methylene}-3-phenyl-2-thioxo-1,3-thiazolidin-4-one], the IC50 stood at 10.7 µM. As for `O=C1/C(=C/c2ccc(-c3ccccc3)o2)SC(=S)N1c1ccccc1` [Compound 28, (5Z)-3-phenyl-5-[(5-phenyl-2-furyl)methylene]-2-thioxo-1,3-thiazolidin-4-one], the figure is 0.8 µM. `CN1C(=O)/C(=C/c2ccc(-c3cccc4ccccc34)o2)SC1=S` [Compound 33, (5Z)-3-methyl-5-{[5-(1-naphtthyl)-2-furyl]methylene}-2-thioxo-1,3-thiazolidin-4-one]: half-maximal inhibition (IC50) required 6.1 µM. As for `O=C1/C(=C\c2ccc(-c3ccc(Cl)cc3)o2)SC(=S)N1C1CCS(=O)(=O)C1` (centres unmarked) [Compound 40, (5E)-5-{[5-(4-chlorophenyl)-2-furyl]methylene}-3-(1,1-dioxidotetrahydro-3-thienyl)-2-thioxo-1,3-thiazolidin-4-one], the figure is 5.52 µM; as for `CCOc1ccc(N2C(=O)/C(=C\c3ccc(-c4ccc(Br)cc4)o3)SC2=S)cc1` [Compound 69, (5E)-5-{[5-(4-bromophenyl)-2-furyl]mthylene}-3-(4-ethoxyphenyl)-2-thioxo-1,3-thiazolidin-4-one], 14.2 µM. Under `O=C1/C(=C\c2ccc(-c3ccc([N+](=O)[O-])cc3)o2)SC(=S)N1CCc1ccccc1` [Compound 75, (5E)-5-{[5-(4-nitrophenyl)-2-furyl]methylene}-3-(2-phenylethyl)-2-thioxo-1,3-thiazolidin-4-one] stands 13.6 µM. With `O=C(O)CCN1C(=O)/C(=C/c2ccc(-c3ccc(Cl)cc3Cl)o2)SC1=S` [Compound 77, 3-((5Z)-5-{[5-(2,4-dichlorophenyl)-2-furyl]methylene}-4-oxo-2-thioxo-1,3-thiazolidin-3-yl)propanoic acid], the IC50 was 0.81 µM. For the molecule `O=C1/C(=C\c2ccc(-c3cccc([N+](=O)[O-])c3)o2)SC(=S)N1Cc1ccccc1` [Compound 98, (5E)-3-benzyl-5-{[5-(3-nitrophenyl)-2-furyl]methylene}-2-thioxo-1,3-thiazolidin-4-one], the half-maximal inhibitory concentration (IC50) was found to be 11.6 µM.

`O=C1/C(=C\c2ccc(-c3ccccc3Cl)o2)SC(=S)N1C1CCS(=O)(=O)C1` (centres unmarked) [Compound 99, (5E)-5-{[5-(2-chlorophenyl)-2-furyl]methylene}-3-(1,1-dioxidotetrahydro-3-thienyl)-2-thioxo-1,3-thiazolidin-4-one] came in with an IC50 of 0.21 µM.

`NS(=O)(=O)c1ccc(-c2ccc(/C=C3\SC(=S)N(CCc4ccccc4)C3=O)o2)cc1` [Compound 103, 4-(5-{(Z)-[4-oxo-3-(2-phenylethyl)-2-thioxo-1,3-thiazolidin-5-ylidene]methyl}-2-furyl)benzenesulfonamide] displayed an IC50 of 3.87 µM. Molecule `O=C1/C(=C/c2ccc(-c3cccc([N+](=O)[O-])c3)o2)SC(=S)N1CC1CCCO1` (centres unmarked) [Compound 254, (5Z)-5-{[5-(3-nitrophenyl)-2-furyl]methylene}-3-(tetrahydrofuran-2-ylmethyl)-2-thioxo-1,3-thiazolidin-4-one] came in with an IC50 of 24.8 µM. The molecule `O=C(O)CCN1C(=O)/C(=C\c2ccc(-c3ccc(Cl)c(Cl)c3)o2)SC1=S` [Compound 256, 3-((5E)-5-{[5-(3,4-dichlorophenyl)-2-furyl]methylene}-4-oxo-2-thioxo-1,3-thiazolidin-3-yl)propanoic acid] showed an IC50 of 0.53 µM. As for `O=C1/C(=C/c2ccc(-c3ccccc3Cl)o2)SC(=S)N1CCc1ccccn1` [Compound 278, (5Z)-5-{[5-(2-chlorophenyl)-2-furyl]methylene}-3-(2-pyridin-2-ylethyl)-2-thioxo-1,3-thiazolidin-4-one], the figure is 5.21 µM; as for `O=C1/C(=C/c2ccc(-c3ccccc3Cl)o2)SC(=S)N1Cc1ccc2c(c1)OCO2` [Compound 299, (5Z)-3-(1,3-benzodioxol-5-ylmethyl)-5-{[5-(2-chlorophenyl)-2-furyl]methylene}-2-thioxo-1,3-thiazolidin-4-one], 0.45 µM.
